One compound from patent US8729081B2, “Compositions and methods for treating alcohol use disorders, pain and other diseases” (VM Discovery Inc., priority 2008, dated 2014) can be followed below.

A value given as a limit tells only on which side of the number the result lay.

Holding throughout (format): biochemical
One experiment concerns the target T1, PKCdelta (Homo sapiens, UniProt Q05655).
T1 construct: purchased Reaction Biology Corp
Briefly: Kinase profiling. The protocol: [The procedure below names another target; the source lists this target under the same test.] (§1) Kinase profiling was performed using HotSpot technology (Reaction Biology Corp. 11 Malvern, Pa., USA). This technology is a radioisotope-based P81 filter-binding assay. Compound of the present invention were dissolved in pure DMSO to make a 10 mM stock, then diluted in pure DMSO to make a serial dilution based on the IC50 ranges. PKCε (h) (0.4 nM, human recombinant protein expressed in insect cells. Mw=83.7 kDa) and substrate (20 μM peptide substrate, [RFARKGSLRQKNV]) were diluted in the reaction buffer (20 mM HEPES-HCl, pH 7.5, 10 mM MgCl2, 1 mM EGTA, 0.02% Brij35, 0.1 mM Na3VO4, 0.02 mg/ml BSA, 2 mM DTT, and 1% DMSO), and then 5 nL of compound was delivered into PKCε (h) and substrate mixture by acoustic technology using Echo 550 (LabCyte Inc., Sunnyvale, Calif.). The reaction was initiated by the addition of [γ-33P-ATP] into the reaction mixture (final concentration was 10 μM) and stopped after at least 40 min incubation at room temperature. The unreacted free 33P-ATP was washed away before detection.

Another experiment concerns the target T2, ROCK1 (Homo sapiens, UniProt Q13464).
T2 construct: purchased Reaction Biology Corp
Description: Kinase profiling. The protocol:
[The procedure below names another target; the source lists this target under the same test.] as §1

Another experiment deals with T3, PKCzeta (Homo sapiens, UniProt Q05513).
T3 construct: purchased Reaction Biology Corp
T3 sequence (Q05513 whole entry): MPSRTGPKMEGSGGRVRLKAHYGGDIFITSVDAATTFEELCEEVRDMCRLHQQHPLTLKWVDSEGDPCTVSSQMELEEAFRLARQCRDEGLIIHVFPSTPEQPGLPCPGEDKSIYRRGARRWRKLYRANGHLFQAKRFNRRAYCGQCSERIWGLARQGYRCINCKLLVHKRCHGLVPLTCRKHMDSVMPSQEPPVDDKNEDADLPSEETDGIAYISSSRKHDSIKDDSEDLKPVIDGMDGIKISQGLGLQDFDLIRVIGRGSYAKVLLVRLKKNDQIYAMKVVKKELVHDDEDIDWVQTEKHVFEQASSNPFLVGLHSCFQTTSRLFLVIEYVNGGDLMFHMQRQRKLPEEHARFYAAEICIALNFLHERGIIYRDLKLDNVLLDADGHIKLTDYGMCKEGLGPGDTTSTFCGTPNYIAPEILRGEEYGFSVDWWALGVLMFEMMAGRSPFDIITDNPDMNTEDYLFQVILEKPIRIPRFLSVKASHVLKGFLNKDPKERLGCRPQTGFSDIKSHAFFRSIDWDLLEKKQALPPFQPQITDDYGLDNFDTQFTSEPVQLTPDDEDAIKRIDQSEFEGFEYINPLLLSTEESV
Briefly: Kinase profiling. Here is the method: [The procedure below names another target; the source lists this target under the same test.] as §1

In another experiment the target is T4, TrkA (Homo sapiens, UniProt P04629).
T4 construct: purchased Reaction Biology Corp
Description: Kinase profiling. Here is the method: [The procedure below names another target; the source lists this target under the same test.] as §1

The next experiment concerns the target T5, PDPK1 (Homo sapiens, UniProt O15530).
T5 construct: purchased Reaction Biology Corp
Briefly: Kinase profiling. Here is the method: [The procedure below names another target; the source lists this target under the same test.] as §1

For another experiment, the target named is T6, Akt1 (Homo sapiens, UniProt P31749).
T6 construct: purchased Reaction Biology Corp
T6 sequence (P31749 whole entry): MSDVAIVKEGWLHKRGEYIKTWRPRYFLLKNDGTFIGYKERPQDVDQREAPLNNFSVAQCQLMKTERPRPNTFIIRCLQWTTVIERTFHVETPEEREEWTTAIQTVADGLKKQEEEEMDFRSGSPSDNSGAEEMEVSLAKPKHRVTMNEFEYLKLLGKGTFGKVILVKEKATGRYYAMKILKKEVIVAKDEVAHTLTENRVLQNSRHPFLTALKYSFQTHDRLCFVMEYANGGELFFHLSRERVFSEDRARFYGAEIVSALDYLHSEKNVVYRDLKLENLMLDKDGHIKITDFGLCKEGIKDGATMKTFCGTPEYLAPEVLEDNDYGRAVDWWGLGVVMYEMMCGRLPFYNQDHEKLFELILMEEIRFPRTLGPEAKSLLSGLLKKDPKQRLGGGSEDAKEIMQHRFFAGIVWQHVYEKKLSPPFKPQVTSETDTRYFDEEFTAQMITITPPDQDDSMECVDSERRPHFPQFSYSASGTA
Description: Kinase profiling. The protocol:
[The procedure below names another target; the source lists this target under the same test.] as §1

The next experiment has as its target T7, CDK1/cyclinB (Homo sapiens, UniProt P06493).
T7 construct: purchased Reaction Biology Corp
Description: Kinase profiling. Here is the method: [The procedure below names another target; the source lists this target under the same test.] as §1

The next experiment concerns the target T8, PKCgamma (Homo sapiens, UniProt P05129).
T8 construct: purchased Reaction Biology Corp
Briefly: Kinase profiling. Here is the method:
[The procedure below names another target; the source lists this target under the same test.] as §1

For the next experiment, the target named is T9, PKCbeta2 (Homo sapiens, UniProt P05771).
T9 construct: purchased Reaction Biology Corp
Description: Kinase profiling. Here is the method:
[The procedure below names another target; the source lists this target under the same test.] as §1

A further experiment concerns the target T10, PKCalpha (Homo sapiens, UniProt P17252).
T10 construct: purchased Reaction Biology Corp
Description: Kinase profiling. Here is the method: [The procedure below names another target; the source lists this target under the same test.] as §1

For a further experiment, the target named is T11, PKCmu (Homo sapiens, UniProt Q15139).
T11 construct: purchased Reaction Biology Corp
Description: Kinase profiling. Here is the method: [The procedure below names another target; the source lists this target under the same test.] as §1

Another experiment deals with T12, CAMKIIa_alpha (Homo sapiens, UniProt Q9UQM7).
T12 construct: purchased Reaction Biology Corp
T12 sequence (Q9UQM7 whole entry): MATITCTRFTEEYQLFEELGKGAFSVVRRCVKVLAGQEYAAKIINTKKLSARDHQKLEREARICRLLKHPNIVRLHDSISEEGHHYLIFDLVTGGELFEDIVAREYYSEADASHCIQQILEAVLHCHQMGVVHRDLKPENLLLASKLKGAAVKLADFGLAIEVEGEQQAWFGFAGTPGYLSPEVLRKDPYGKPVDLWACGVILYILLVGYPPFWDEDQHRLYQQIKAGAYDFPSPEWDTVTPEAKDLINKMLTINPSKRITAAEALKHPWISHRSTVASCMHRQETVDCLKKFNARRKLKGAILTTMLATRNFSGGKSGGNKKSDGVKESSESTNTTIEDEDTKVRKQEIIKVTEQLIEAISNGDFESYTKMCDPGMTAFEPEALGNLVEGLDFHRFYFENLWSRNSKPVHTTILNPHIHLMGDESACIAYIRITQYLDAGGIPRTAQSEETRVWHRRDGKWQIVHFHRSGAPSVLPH
Briefly: Kinase profiling. Here is the method:
[The procedure below names another target; the source lists this target under the same test.] as §1

In the next experiment the target is T13, PKCε (h) (Homo sapiens, UniProt Q02156).
T13 construct: host or cells: insect cells
T13 sequence (Q02156 1-737): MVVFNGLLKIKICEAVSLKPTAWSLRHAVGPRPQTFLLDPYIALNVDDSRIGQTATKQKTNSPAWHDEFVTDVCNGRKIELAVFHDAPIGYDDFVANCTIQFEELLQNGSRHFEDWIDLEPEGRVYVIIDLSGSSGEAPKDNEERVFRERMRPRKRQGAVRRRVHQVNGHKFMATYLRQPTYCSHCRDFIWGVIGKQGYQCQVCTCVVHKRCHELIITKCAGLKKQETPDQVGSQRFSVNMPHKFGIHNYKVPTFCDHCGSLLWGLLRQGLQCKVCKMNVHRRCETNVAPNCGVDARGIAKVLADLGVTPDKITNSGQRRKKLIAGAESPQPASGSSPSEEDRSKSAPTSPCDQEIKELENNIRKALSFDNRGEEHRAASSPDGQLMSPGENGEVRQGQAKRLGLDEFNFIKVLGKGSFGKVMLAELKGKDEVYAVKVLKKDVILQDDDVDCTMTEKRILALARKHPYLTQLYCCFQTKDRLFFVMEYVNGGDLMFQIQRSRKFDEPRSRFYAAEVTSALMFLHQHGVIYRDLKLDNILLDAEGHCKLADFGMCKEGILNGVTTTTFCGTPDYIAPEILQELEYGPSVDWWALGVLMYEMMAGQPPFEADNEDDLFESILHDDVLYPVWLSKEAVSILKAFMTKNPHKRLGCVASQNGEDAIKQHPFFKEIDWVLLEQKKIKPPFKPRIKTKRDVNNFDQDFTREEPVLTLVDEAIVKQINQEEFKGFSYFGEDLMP
Description: In vitro PKCε kinase assay (radiometric, [γ-33P-ATP], HotSpot). The note with it: recombinant human PKCε, 10 μM ATP; read-out: IC50 in antagonizing the PKCε. Here is the method: There are many in vitro commercially available and validated bioassays (Ma, H., et al, Expert Opin Drug Discov. 2008 June; 3(6): 607-621 and references therein) which can be used to characterize the activities of compounds of the present invention against PKCε protein kinase. Compounds can be tested against the activity of recombinant PKCε. In a final reaction volume of 25 μL, PKCε (h) (0.4 nM, Human recombinant protein expressed in insect cells. Mw=83.7 kDa) is incubated with kinase buffer (20 mM HEPES-HCl, pH 7.5, 10 mM MgCl2, 1 mM EGTA, 0.02% Brij35, 0.1 mM Na3VO4, 0.02 mg/ml BSA, 2 mM DTT, and 1% DMSO), 0.1 mg/mL phosphatidylserine, 10 μg/mL diacylglycerol, 20 μM S25-PKC peptide substrate (RFARKGSLRQKNV-OH, Mw=1561 Da), 10 mM MgAcetate and 10 μM [γ-33P-ATP] (specific activity approx. 500 cpm/pmol). The reaction is initiated by the addition of the MgATP mix. After incubation for 40 minutes at room temperature, the reaction is stopped by the addition of 5 μL of a 3% phosphoric acid solution. 10 μL of the reaction is then spotted onto a P30 filtermat and washed three times for 5 minutes in 75 mM phosphoric acid and once in methanol prior to drying and scintillation counting Control samples are incubated without inhibitor to measure maximal activity or with the general kinase inhibitor Staurosporine (5 μM) to measure complete inhibition. For each compound the % inhibition can be calculated by the formula, or by curve fits: % Inhibition=(Max activity−Activity with compound)/(Max activity−Activity with Control)*100. Compounds with inhibitory activity are assayed using at least 5 concentrations (1 nM-300 μM). Concentrations are adjusted to generate a complete dose-response curve. Each sample is assayed in duplicate and each experiment is repeated three times. Results are fitted by non-linear regression analysis to a sigmoidal dose-response curve with variable slope to calculate Hill slope, log IC50 and Imax values for each inhibitor, using the program Prism 5 (GraphPad Software, Inc., San Diego, Calif.).
as §1
The intrinsic PKCε antagonist activity of a compound which may be used in the present invention may be determined by these assays. […] Such a result is indicative of the intrinsic activity of the compounds in use as antagonists of PKCε.

T5 sequence (O15530 whole entry): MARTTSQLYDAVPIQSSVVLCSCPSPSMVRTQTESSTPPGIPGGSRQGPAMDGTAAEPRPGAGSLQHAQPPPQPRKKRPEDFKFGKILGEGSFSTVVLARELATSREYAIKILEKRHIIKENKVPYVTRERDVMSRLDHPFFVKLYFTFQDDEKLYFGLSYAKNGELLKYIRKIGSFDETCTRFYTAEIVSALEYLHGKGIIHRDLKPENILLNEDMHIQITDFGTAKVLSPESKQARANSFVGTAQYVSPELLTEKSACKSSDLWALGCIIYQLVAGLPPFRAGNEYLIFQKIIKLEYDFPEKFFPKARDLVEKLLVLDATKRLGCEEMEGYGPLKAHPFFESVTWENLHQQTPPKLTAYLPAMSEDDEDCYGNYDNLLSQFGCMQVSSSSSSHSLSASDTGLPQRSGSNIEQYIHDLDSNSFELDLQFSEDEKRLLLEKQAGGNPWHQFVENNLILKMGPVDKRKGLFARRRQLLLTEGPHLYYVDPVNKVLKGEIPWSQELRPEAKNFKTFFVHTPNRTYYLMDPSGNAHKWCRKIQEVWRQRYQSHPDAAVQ
T2 sequence (Q13464 whole entry): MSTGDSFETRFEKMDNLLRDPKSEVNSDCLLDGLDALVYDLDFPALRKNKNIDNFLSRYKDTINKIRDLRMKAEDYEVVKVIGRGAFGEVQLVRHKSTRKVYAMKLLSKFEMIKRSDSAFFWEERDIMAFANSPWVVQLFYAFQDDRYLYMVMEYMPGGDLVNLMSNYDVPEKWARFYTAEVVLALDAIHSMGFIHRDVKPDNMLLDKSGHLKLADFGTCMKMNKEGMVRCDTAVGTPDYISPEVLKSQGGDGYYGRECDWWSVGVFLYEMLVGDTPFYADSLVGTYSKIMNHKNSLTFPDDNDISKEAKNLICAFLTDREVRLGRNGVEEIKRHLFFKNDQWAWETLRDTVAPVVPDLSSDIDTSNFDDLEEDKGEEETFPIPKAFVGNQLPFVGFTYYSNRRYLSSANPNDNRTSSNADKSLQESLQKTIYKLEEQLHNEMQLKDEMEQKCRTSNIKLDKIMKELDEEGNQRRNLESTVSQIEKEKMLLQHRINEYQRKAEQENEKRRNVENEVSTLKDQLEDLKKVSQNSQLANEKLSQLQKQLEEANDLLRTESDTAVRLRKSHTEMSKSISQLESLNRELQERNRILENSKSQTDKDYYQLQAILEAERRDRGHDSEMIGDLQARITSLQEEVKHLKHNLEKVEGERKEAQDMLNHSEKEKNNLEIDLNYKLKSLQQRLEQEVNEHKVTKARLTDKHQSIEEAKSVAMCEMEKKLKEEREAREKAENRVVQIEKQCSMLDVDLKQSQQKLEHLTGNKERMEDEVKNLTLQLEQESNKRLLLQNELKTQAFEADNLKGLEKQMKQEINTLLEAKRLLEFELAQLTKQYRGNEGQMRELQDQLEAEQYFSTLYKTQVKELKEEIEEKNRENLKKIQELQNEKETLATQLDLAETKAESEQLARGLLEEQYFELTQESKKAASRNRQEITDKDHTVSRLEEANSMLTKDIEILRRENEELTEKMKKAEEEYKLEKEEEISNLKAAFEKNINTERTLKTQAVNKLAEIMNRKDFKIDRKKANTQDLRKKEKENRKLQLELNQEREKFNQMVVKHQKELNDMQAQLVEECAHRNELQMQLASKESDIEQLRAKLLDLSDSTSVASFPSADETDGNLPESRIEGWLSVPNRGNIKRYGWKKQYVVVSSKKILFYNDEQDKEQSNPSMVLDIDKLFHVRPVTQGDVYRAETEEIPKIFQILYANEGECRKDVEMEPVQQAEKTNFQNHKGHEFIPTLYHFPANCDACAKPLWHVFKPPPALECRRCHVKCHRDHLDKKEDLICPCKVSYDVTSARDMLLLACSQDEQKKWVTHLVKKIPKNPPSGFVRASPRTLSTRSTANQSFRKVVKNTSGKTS
T7 sequence (P06493 whole entry): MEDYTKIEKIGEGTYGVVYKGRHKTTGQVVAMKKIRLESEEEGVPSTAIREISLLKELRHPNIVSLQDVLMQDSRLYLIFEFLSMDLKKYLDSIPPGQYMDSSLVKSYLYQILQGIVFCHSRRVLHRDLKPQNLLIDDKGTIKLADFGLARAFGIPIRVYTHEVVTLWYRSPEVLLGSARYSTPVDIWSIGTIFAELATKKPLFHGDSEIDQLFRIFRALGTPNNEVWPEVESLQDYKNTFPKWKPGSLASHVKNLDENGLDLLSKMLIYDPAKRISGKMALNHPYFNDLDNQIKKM
T7 sequence (P14635 whole entry partner): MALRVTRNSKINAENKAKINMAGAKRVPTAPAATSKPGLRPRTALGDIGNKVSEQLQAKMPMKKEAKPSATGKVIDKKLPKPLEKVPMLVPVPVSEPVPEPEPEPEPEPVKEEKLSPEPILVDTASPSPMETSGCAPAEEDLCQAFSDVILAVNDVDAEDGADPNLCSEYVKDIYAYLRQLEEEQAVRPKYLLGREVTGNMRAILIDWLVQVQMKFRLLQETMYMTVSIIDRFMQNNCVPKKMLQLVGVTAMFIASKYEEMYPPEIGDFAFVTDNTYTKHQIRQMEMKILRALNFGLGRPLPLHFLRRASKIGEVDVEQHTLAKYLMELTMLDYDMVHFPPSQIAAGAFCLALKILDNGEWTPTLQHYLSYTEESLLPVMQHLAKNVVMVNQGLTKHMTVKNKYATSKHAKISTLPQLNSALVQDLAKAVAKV

As to `O=C(NCCCN1CCCC1)c1ccc(/C=C2\Sc3ccccc3N(Cc3ccccc3F)C2=O)cc1` [Compound 481, 4-{(Z/E)-[4-(2-fluorobenzyl)-3-oxo-3,4-dihydro-2H-1,4-benzothiazin-2-ylidene]methyl}-N-[3-(pyrrolidin-1-yl)propyl]benzamide], the IC50 at PKCdelta, at ROCK1, on PKCzeta, at TrkA, against PDPK1 and at Akt1 was above 20 µM in each case. Also, the IC50 against CDK1/cyclinB, at PKCgamma, against PKCbeta2, on PKCalpha, against PKCmu and against CAMKIIa_alpha was above 20 µM in each case. For the same compound, the IC50 at PKCε (h) lay in the range of 0.01 to 1 µM.
